Test results from US20260167706A1, “ANTI-ADRENOMEDULLIN (ADM) ANTIBODY OR ANTI-ADM ANTIBODY FRAGMENT OR ANTI-ADM NON-IG SCAFFOLD FOR USE IN THERAPY OR PREVENTION OF SHOCK” (ADRENOMED AG, priority 2022, published 2026).
Like-named read-outs stand apart in the source and are kept apart here.

What was measured:
[1] = system: patients with septic shock and elevated adrenomedullin; test: AdrenOSS-2 phase II clinical trial, mortality versus placebo; format: in vivo, human; conditions: for all-cause mortality compared to the placebo arm: 28 days
Text: AdrenOSS-2 is a double-blind, placebo-controlled, randomized, multicenter, proof of concept and dose-finding phase II clinical trial to investigate the safety, tolerability and efficacy of the N-terminal ADM antibody named Adrecizumab in patients with septic shock and elevated adrenomedullin (Geven et al. BMJ Open 2019; 9:e024475). In total, 301 patients with septic shock and bio-ADM concentration >70 pg/mL were randomized (2:1:1) to treatment with a single intravenous infusion over approximately 1 hour with either placebo (n=152), adrecizumab 2 ng/kg (n=72) or adrecizumab 4 ng/kg (n=77). All-cause mortality within 28 (90) days after inclusion was 25.8% (34.8%). Mean age was 68.4 years and 61% were male. For the per protocol analysis, n=294 patients remained eligible, and 14-day all-cause mortality rate was 18.5%.
To validate the findings from example 10 and for proof of concept, the different lower thresholds for DPP3 at baseline (day 1) were assessed for efficacy of the anti-ADM antibody (Adrecizumab) therapy in the septic shock population with high bio-ADM from the AdrenOSS-2 study cohort and patients with a DPP3 plasma value above the different lower thresholds were excluded from the analyses. Efficacy of the anti-bio-ADM antibody therapy was specifically assessed to what concerns the mortality endpoint in the placebo and treated arms.
The DPP3 plasma levels in septic shock with high bio-ADM (above […]) patients (n=298) at baseline and in the following 144 h were statistically analysed with the aim of determining a DPP3 threshold at baseline to assess anti-ADM antibody therapy efficacy. Patients above the respective DPP3 plasma thresholds were excluded from the analyses. Different DPP3 plasma concentration thresholds have been applied for 28-day all-cause mortality evaluation using Kaplan-Meier plots comparing anti-ADM antibody therapy vs. placebo. The log-rank test was chosen for showing differences in mortality rates among treatment groups. Hazard ratios (HR) were calculated for each DPP3 plasma concentration threshold to estimate the reduction in mortality risk imposed by anti-ADM antibody therapy relative to placebo.
The different thresholds for DPP3 levels at baseline (day 1) were further used for subgroup analyses for 28-day all-cause mortality evaluation using Kaplan-Meier plots in the treated and placebo arms comparing anti-ADM antibody therapy (Adrecizumab) vs. placebo. The DPP3 plasma concentration thresholds at baseline used were 50 ng/ml and 30 ng/ml.

[2] = system: patients with septic shock and elevated adrenomedullin; test: as above; format: in vivo, human
[3] = system: mice with CLP-induced sepsis; conditions: pre-treatment, cited from earlier work
[4] = system: endotoxemic rats; conditions: pre-treatment; cited from earlier work
[5] = system: subjects of phase I study; conditions: cited from earlier work

Adrecizumab: humanized N-terminal anti-ADM antibody; heavy chain SEQ ID NO: 32, light chain SEQ ID NO: 33
all-cause mortality compared to the placebo arm ([1]; DPP3 below 30 ng/ml (n=195)): significantly reduced | all-cause mortality compared to the placebo arm ([1]; DPP3 below 50 ng/ml): lower than the placebo arm | all-cause mortality compared to the placebo arm ([1]; DPP3 below 50 ng/ml at baseline and continuously low during the next 144h): significantly lower | HR, 28-day all-cause mortality relative to placebo ([1]; DPP3 threshold at baseline 22 ng/ml): 0.258 | HR, 28-day all-cause mortality relative to placebo ([1]; DPP3 threshold at baseline 30 ng/ml): 0.309 | HR, 28-day all-cause mortality relative to placebo ([1]; DPP3 threshold at baseline 40 ng/ml): 0.568 | HR, 28-day all-cause mortality relative to placebo ([1]; DPP3 threshold at baseline 50 ng/ml): 0.606 | HR for 14-day mortality ([2]; elevated DPP3 above 50 ng/mL): 1.69 | HR for 14-day mortality ([2]; pre-dose DPP3 <40): 0.385 | HR for 14-day mortality ([2]; pre-dose DPP3 <50 (ng/mL)): 0.426 | HR for 14-day mortality ([2]; pre-dose DPP3 <60): 0.449 | HR for 14-day mortality ([2]; pre-dose DPP3 <70): 0.546 | HR for 14-day mortality ([2]; pre-dose DPP3 <90): 0.606 | renal vascular leakage ([3]; mice with CLP-induced sepsis): attenuated | 7-day survival ([3]; repeated dose administration (control 0%)): 40% | 7-day survival ([3]; single dose administration (control 10%)): 50% | renal vascular leakage [4]: attenuated | serious adverse events [5]: no serious adverse events were observed
